Assay results published in US5250700A, “Phenyl pyrazolidinones as bronchodilators and anti-inflammatory agents” (American Home Products Corporation, priority 1992, dated 1993).
Where a name gives a salt, the structure may show the parent alone.

System: PDE IV
Test: Inhibition of PDE IV isolated from canine tracheal muscle (cAMP metabolism)
Assay type: biochemical
Details: canine trachealis PDE IV; for IC50: 1 μM 3H-cAMP, 10 μM CI-930, 30° C., pH 7.8, reduction expressed relative to 10 μM rolipram; for inhibition of PDE IV (percentage): at 10^-5 (concentration unit not given), percentage of the reduction induced by 10 μM rolipram
Procedure: The following assay is employed to assess the ability of the compound of the invention to inhibit PDE IV. A solution containing PDE IV is prepared from canine tracheal muscle as follows: The dog is euthanized with an overdose of euthanasia while under anesthesia induced by a 33 mg/kg IV bolus of Nembutal. The trachealis muscle is removed, cleaned of connective tissue, and minced thoroughly. Three to four grams of tissue is then homogenized in Trim-HCl buffer (pH 7.8) using a Polytron. The homogenate is then centrifuged at 25,000×g (4° C.) for 30 minutes. The supernatant is decanted and filtered through four layers of gauze, and applied to a 40 cm×2 cm DEAE-Sepharose column that is equilibrated with Trim-HCl buffer (pH 7.8). The column is then washed with an additional 240 mL of buffer to remove unbound proteins. […] Each fraction is assayed for cAMP- and cGMP- metabolizing PDE activity. Fractions eluting at approximately 0.6 M Na-acetate, and containing CAMP but not CGMP metabolic activity are pooled and used as a PDE stock solution for assaying PDE IV inhibitory activity. […] CI-930 is included as an inhibitor of the cyclic GMP-sensitive, cyclic AMP-selectivePDE (PDE III) that is also present in the PDE IV stock solution when prepared as described above.

| IC50 | Compound | inhibition of PDE IV (percentage) |
| --- | --- | --- |
| 1500 nM | COc1ccc(C2CC(=O)N(Cc3cccnc3)N2C)cc1OC1CCCC1 (stereo not drawn) [Example 25, 5-[3-(cyclopentyloxy)-4-methoxyphenyl]-1-methyl-2-(3-pyridinylmethyl)-3-pyrazolidinone hydrochloride dehydrate] |  |
| 3200 nM | COc1ccc(C2CC(=O)N(C(=O)NN3CCOCC3)N2C)cc1OC1CCCC1 (stereo not drawn) [Example 37, 3-(3-Cyclolpentyloxy-4-methoxyphenyl)-2-methyl-5-oxo-pyrazolidine-1-carboxylic acid morilholin-4-ylamide] |  |
| 53 nM | COc1ccc(CNC(=S)N2C(=O)CC(c3ccc(OC)c(OC4CCCC4)c3)N2C)cc1 (stereo not drawn) [Example 21, 3-[3-(cyclopentyloxy)-4-methoxyphenyl]-N-[(4-methoxyphenyl)methyl]-2-methyl-5-oxo-1-pyrazolidinecarbothioamide] |  |
|  | COc1ccc(C2CC(=O)N(C(=O)Nc3ccccc3)N2C)cc1OC1CCCC1 (stereo not drawn) [Example 16, 3-[3-(cyclopentyloxy)-4-methoxyphenyl-2-methyl-5-oxo-N-phenyl-1-pyrazolidinecarboxamide hydrochloride] | 48% |
| 150 nM | COc1ccc(C2CC(=O)N(C(=O)NCc3cccs3)N2C)cc1OC1CCCC1 (stereo not drawn) [Example 39, 3-(3-Cyclopentyloxy-4-methoxyphenyl)-2-methyl-5-oxo-pyrazolidine-1-carboxylic acid thiophen-2-yl methylamide] |  |
| 560 nM | COc1ccc(C2CC(=O)N(C(=O)NCCCN3CCCC3=O)N2C)cc1OC1CCCC1 (stereo not drawn) [Example 38, 3-(3-Cyclopentyloxy-4-methoxyphenyl)-2-methyl-5-oxo-pyrazolidine-1-carboxylic acid 3-(2-oxo-pyrrolidin-1-yl) propylamide] |  |
| 170 nM | CCCCCCCN1C(=O)CC(c2ccc(OC)c(OC3CCCC3)c2)N1C (stereo not drawn) [Example 26, 5-[3-(cyclopentyloxy)-4-methoxyphenyl-2-heptyl-1-methyl-3-pirazolidinone hydrochloride] |  |
| 440 nM | COC(=O)CN1NC(=O)CC1c1ccc(OC)c(OC2CCCC2)c1 (stereo not drawn) [Example 4, 5-[3-(Cyclopentyloxy)-4-methoxylphenyl]-3-oxo-1-pyrazolidineacetic acid methyl ester] |  |
| 820 nM | COc1ccc(C2CC(=O)N(C)N2C)cc1OC1CCCC1 (stereo not drawn) [Example 3, 5-[3-(Cyclopentyloxy)-4-methoxyphenyl]-1,2-dimethyl-3-pyrazolidinone, hydriodide] |  |
| 12 nM | COc1ccc(C2CC(=O)N(C(=O)N[C@@H](C)c3cccc4ccccc34)N2C)cc1OC1CCCC1 (single isomer, unassigned) [13 A] |  |
| 350 nM | COc1ccc(C2CC(=O)N(C(=O)c3cncc(Br)c3)N2C)cc1OC1CCCC1 (stereo not drawn) [Example 28, 5-[3-(cyclopentyloxy)-4-methoxyphenyl]-1-methyl-2-(5-bromo-3-pyridinylcarbonyl)-3-pyrazolidinone] |  |
| 340 nM | COc1ccc(C2CC(=O)N(C(=O)c3cccnc3)N2C)cc1OC1CCCC1 (stereo not drawn) [Example 32, 5-[3-(cyclolpentyloxy)-4-methoxyphenyl]-1-methyl-2-(3-pyridinylcarbonyl)-3-pirazolidinone hemihydrate] |  |
| 980 nM | COc1ccc(C2CC(=O)N(C(C)=O)N2C)cc1OC1CCCC1 (stereo not drawn) [Example 31, 2-acetyl-5-[3-(cyclopentyloxy)-4-methoxyphentyl]-1-methyl-3-pyrazolidinone hydrochloride] |  |
| 4100 nM | CCN1NC(=O)CC1c1ccc(OC)c(OC2CCCC2)c1 (stereo not drawn) [Example 35, 5-[3-(cyclopentyloxy)-4-methoxyphenyl]-1-ethyl-3-pyrazolidinone] |  |
| 210 nM | COc1ccc(C2CC(=O)N(C(=O)NCCCn3ccnc3)N2C)cc1OC1CCCC1 (stereo not drawn) [Example 42, 3-(3-Cyclopentyloxy-4-methoxyphenyl)-2-methyl-5-oxo-pyrazolidine-1-carboxylic acid 3-imidazol-1-yl propylamide] |  |
| 2400 nM | COc1ccc(C2CC(=O)N(C(=O)NCCN3CCOCC3)N2C)cc1OC1CCCC1 (stereo not drawn) [Example 41, 3-(3-Cyclolpentyloxy-4-methoxyphenyl)-2-methyl-5-oxo-pyrazolidine-1-carboxylic acid 2-morlpholin-4-yl ethylamide] |  |
| 65 nM | COc1ccc(C2CC(=O)N(C(=S)NCc3ccc(F)cc3)N2C)cc1OC1CCCC1 (stereo not drawn) [Example 20, 3-[3-(cyclopentyloxy)-4-methoxyphenyl]-N-[(4-fluorophenyl)-methyl]-2-methyl-5-oxo-1-pyrazolidinecarbothioamide] |  |
| 310 nM | COc1ccc(-c2cc(=O)[nH]n2C)cc1OC1CCCC1 [Example 10, 5-[3-(cyclopentyloxy)-4-methoxyphenyl]-1,2-dihydro-1-methyl-3H-pyrazol-3-one] |  |
|  | COC(=O)N1NC(=O)CC1c1ccc(OC)c(OC2CCCC2)c1 (stereo not drawn) [Example 6, 5-[3-(Cyclopentyloxy)-4-methoxyphenyl]-3-oxo-1-pyrazolidinecarboxylic acid methyl ester] | 52% |
| 5600 nM | CCN(CC)CCNC(=O)N1C(=O)CC(c2ccc(OC)c(OC3CCCC3)c2)N1C (stereo not drawn) [Example 36, 3-(3-Cyclopentyloxy-4-methoxyphenyl)-2-methyl-5-oxo-pyrazolidine-1-carboxylic acid 2-(diethyl-amino) ethylamide] |  |
| 260 nM | CCCCNC(=O)N1C(=O)CC(c2ccc(OC)c(OC3CCCC3)c2)N1C (stereo not drawn) [Example 14, N-butyl-3-f3-(cyclopentyloxy)-4-methoxyphenyl]-2-methyl-5-oxo-1-pyrazolidinecarboxamide hydrochloride] |  |
| 100 nM | COc1ccc(C2CC(=O)N(C(=O)NC3CCCCC3)N2C)cc1OC1CCCC1 (stereo not drawn) [Example 18, N-cyclohexyl-3-[3-(cyclopentyloxy)-4-methoxyphenyl]-2-methyl-5-oxo-1-pyrazolidine carboxamide hydrochloride] |  |
| 940 nM | COc1ccc(C2CC(=O)N(Cc3cncc(Br)c3)N2C)cc1OC1CCCC1 (stereo not drawn) [Example 27, 2-[(5-bromo-3-pyridinyl)methyl]-5-[3-(cyclopentyloxy)-4-methoxyphenyl]-1-methyl-3-pyrazolidinone hydrochloride] |  |

| Compound | IC50 | inhibition of PDE IV (percentage) |
| --- | --- | --- |
| COc1ccc(NC(=O)N2C(=O)CC(c3ccc(OC)c(OC4CCCC4)c3)N2C)cc1 (stereo not drawn) [Example 19, 3-[3-(cyclopentyloxy)-4-methoxyphenyl]-N-(4-methoxyphenyl)-2-methyl-5-oxo-1-pyrazolidinecarboxamide] | 120 nM |  |
